Source: patent US8524745B2 (Allergan, Inc., priority 2011, dated 2013)

These compounds were tested against T1, CCR2 (Homo sapiens, UniProt P41597) (assay: CCR2 calcium activity assay on FLIPR Tetra in HEK-Gqi5 cells stably expressing CCR2).
T1 construct: expressed in transfected cells
Type: cell-based
Procedure: HEK-Gqi5 cells stably expressing CCR2 were cultured in (DMEM high glucose, 10% FBS, 1% PSA, 400 μg/ml geneticin and 50 μg/ml hygromycin. Appropriate positive control chemokines (MCP-1, MIP1A or RANTES) was used as the positive control agonist for screening compound-induced calcium activity assayed on the FLIPR^Tetra. The drug plates were prepared in 384-well microplates using the EP3 and the MuItiPROBE robotic liquid handling systems. Compounds were synthesized and tested for CCR2 activity.

T1 sequence (P41597 whole entry, species assumed): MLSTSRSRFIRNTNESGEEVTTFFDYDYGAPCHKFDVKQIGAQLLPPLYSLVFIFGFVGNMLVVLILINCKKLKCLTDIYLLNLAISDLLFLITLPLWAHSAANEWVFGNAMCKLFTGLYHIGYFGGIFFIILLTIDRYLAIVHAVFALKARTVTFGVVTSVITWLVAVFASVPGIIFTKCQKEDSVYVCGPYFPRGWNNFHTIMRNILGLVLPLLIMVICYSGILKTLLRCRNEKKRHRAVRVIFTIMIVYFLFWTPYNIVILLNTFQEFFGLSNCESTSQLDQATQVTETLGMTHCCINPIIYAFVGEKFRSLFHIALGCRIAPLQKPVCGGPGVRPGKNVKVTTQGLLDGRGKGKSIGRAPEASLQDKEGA

First: Cc1cc(NS(=O)(=O)c2ccc3c(c2)c(=O)sn3C)c(NS(=O)(=O)c2cccs2)cc1C [N-{4,5-dimethyl-2-[(2-thienylsulfonyl)amino]phenyl}-1-methyl-3-oxo-1,3-dihydro-2,1-benzisothiazole-5-sulfonamide]
Second: Cn1sc(=O)c2cc(S(=O)(=O)Nc3cc(Cl)c(Cl)cc3NS(=O)(=O)c3cccs3)ccc21 [N-{4,5-dichloro-2-[(2-thienylsulfonyl)amino]phenyl}-1-methyl-3-oxo-1,3-dihydro-2,1-benzisothiazole-5-sulfonamide]
The “CCR2 % ANTAG” value of the first is lower: 91% for the first, 99% for the second.

Compared with `Cn1sc(=O)c2cc(S(=O)(=O)Nc3ccccc3NS(=O)(=O)c3cc(F)cc(F)c3)ccc21` [N-(2-{[(3,5-difluorophenyl)sulfonyl]amino}phenyl)-1-methyl-3-oxo-1,3-dihydro-2,1-benzisothiazole-5-sulfonamide], `Cn1sc(=O)c2cc(S(=O)(=O)Nc3ccccc3NS(=O)(=O)c3ccoc3)ccc21` [N-{2-[(3-furylsulfonyl)amino]phenyl}-1-methyl-3-oxo-1,3-dihydro-2,1-benzisothiazole-5-sulfonamide] is lower in “CCR2 % ANTAG” value: 96% for the first, 73% for the second.

Going from `COC(=O)c1ccc(NS(=O)(=O)c2ccc3c(c2)c(=O)sn3C)c(NS(=O)(=O)c2cccs2)c1` [methyl 4-{[(1-methyl-3-oxo-1,3-dihydro-2,1-benzisothiazol-5-yl)sulfonyl]amino}-3-[(2-thienylsulfonyl)amino]benzoate] to `CN(C)c1ccc(NS(=O)(=O)c2ccc3c(c2)c(=O)sn3C)c(NS(=O)(=O)c2cccs2)c1` [N-{4-(dimethylamino)-2-[(2-thienylsulfonyl)amino]phenyl}-1-methyl-3-oxo-1,3-dihydro-2,1-benzisothiazole-5-sulfonamide], the “CCR2 % ANTAG” value rises from 0% to 78%.

Compared with `Cn1sc(=O)c2cc(S(=O)(=O)Nc3cc(Cl)ccc3NS(=O)(=O)c3cccc(Cl)c3)ccc21` [N-(5-chloro-2-{[(3-chlorophenyl)sulfonyl]amino}phenyl)-1-methyl-3-oxo-1,3-dihydro-2,1-benzisothiazole-5-sulfonamide], `CN(C)c1ccc(S(=O)(=O)Nc2ccc(Cl)cc2NS(=O)(=O)c2ccc3c(c2)c(=O)sn3C)cc1` [N-[5-chloro-2-({[4-(dimethylamino)phenyl]sulfonyl}amino)phenyl]-1-methyl-3-oxo-1,3-dihydro-2,1-benzisothiazole-5-sulfonamide] is lower in “CCR2 % ANTAG” value: 91% for the first, 64% for the second.

Going from `COc1ccc(S(=O)(=O)Nc2ccc(Cl)cc2NS(=O)(=O)c2ccc3c(c2)c(=O)sn3C)c(OC)c1` [N-(5-chloro-2-{[(2,4-dimethoxyphenyl)sulfonyl]amino}phenyl)-1-methyl-3-oxo-1,3-dihydro-2,1-benzisothiazole-5-sulfonamide] to `CC(=O)Nc1ccc(S(=O)(=O)Nc2ccc(Cl)cc2NS(=O)(=O)c2ccc3c(c2)c(=O)sn3C)cc1` [N-(4-{[(4-chloro-2-{[(1-methyl-3-oxo-1,3-dihydro-2,1-benzisothiazol-5-yl)sulfonyl]amino}phenyl)amino]sulfonyl}phenyl)acetamide], the “CCR2 % ANTAG” value falls from 95% to 80%.

Going from `Cn1sc(=O)c2cc(S(=O)(=O)Nc3c(F)cccc3NS(=O)(=O)c3cccs3)ccc21` [N-{2-fluoro-6-[(2-thienylsulfonyl)amino]phenyl}-1-methyl-3-oxo-1,3-dihydro-2,1-benzisothiazole-5-sulfonamide] to `Cn1sc(=O)c2cc(S(=O)(=O)Nc3ccc(Cl)c(Cl)c3)ccc21` [N-(3,4-dichlorophenyl)-1-methyl-3-oxo-1,3-dihydro-2,1-benzisothiazole-5-sulfonamide], the “CCR2 % ANTAG” value falls from 105% to 94.08%.

Compared with `Cc1cc(NS(=O)(=O)c2ccc3c(c2)c(=O)sn3C)c(NS(=O)(=O)c2cccs2)cc1C` [N-{4,5-dimethyl-2-[(2-thienylsulfonyl)amino]phenyl}-1-methyl-3-oxo-1,3-dihydro-2,1-benzisothiazole-5-sulfonamide], `Cn1sc(=O)c2cc(S(=O)(=O)Nc3cc(Cl)c(Cl)cc3NS(=O)(=O)c3cccs3)ccc21` [N-{4,5-dichloro-2-[(2-thienylsulfonyl)amino]phenyl}-1-methyl-3-oxo-1,3-dihydro-2,1-benzisothiazole-5-sulfonamide] is 6.1-fold lower in IC50: 2190 nM for the first, 361 nM for the second.

`Cn1sc(=O)c2cc(S(=O)(=O)Nc3ccccc3NS(=O)(=O)c3cc(F)cc(F)c3)ccc21` [N-(2-{[(3,5-difluorophenyl)sulfonyl]amino}phenyl)-1-methyl-3-oxo-1,3-dihydro-2,1-benzisothiazole-5-sulfonamide] and `Cn1sc(=O)c2cc(S(=O)(=O)Nc3cc(Cl)ccc3NS(=O)(=O)c3cccc(Cl)c3)ccc21` [N-(5-chloro-2-{[(3-chlorophenyl)sulfonyl]amino}phenyl)-1-methyl-3-oxo-1,3-dihydro-2,1-benzisothiazole-5-sulfonamide] are within 1.5-fold of each other in IC50: 438 nM for the first, 493 nM for the second.

Compared with `COC(=O)c1ccc(NS(=O)(=O)c2ccc3c(c2)c(=O)sn3C)c(NS(=O)(=O)c2cccs2)c1` [methyl 4-{[(1-methyl-3-oxo-1,3-dihydro-2,1-benzisothiazol-5-yl)sulfonyl]amino}-3-[(2-thienylsulfonyl)amino]benzoate], `CN(C)c1ccc(NS(=O)(=O)c2ccc3c(c2)c(=O)sn3C)c(NS(=O)(=O)c2cccs2)c1` [N-{4-(dimethylamino)-2-[(2-thienylsulfonyl)amino]phenyl}-1-methyl-3-oxo-1,3-dihydro-2,1-benzisothiazole-5-sulfonamide] is lower in IC50: greater than 8300 nM for the first, 1230 nM for the second. The second is the more potent here.

`CN(C)c1ccc(S(=O)(=O)Nc2ccc(Cl)cc2NS(=O)(=O)c2ccc3c(c2)c(=O)sn3C)cc1` [N-[5-chloro-2-({[4-(dimethylamino)phenyl]sulfonyl}amino)phenyl]-1-methyl-3-oxo-1,3-dihydro-2,1-benzisothiazole-5-sulfonamide] and `CC(=O)Nc1ccc(S(=O)(=O)Nc2ccc(Cl)cc2NS(=O)(=O)c2ccc3c(c2)c(=O)sn3C)cc1` [N-(4-{[(4-chloro-2-{[(1-methyl-3-oxo-1,3-dihydro-2,1-benzisothiazol-5-yl)sulfonyl]amino}phenyl)amino]sulfonyl}phenyl)acetamide] are within 1.5-fold of each other in IC50: 1650 nM for the first, 2230 nM for the second.

Going from `COc1ccc(S(=O)(=O)Nc2ccc(Cl)cc2NS(=O)(=O)c2ccc3c(c2)c(=O)sn3C)c(OC)c1` [N-(5-chloro-2-{[(2,4-dimethoxyphenyl)sulfonyl]amino}phenyl)-1-methyl-3-oxo-1,3-dihydro-2,1-benzisothiazole-5-sulfonamide] to `Cn1sc(=O)c2cc(S(=O)(=O)Nc3c(F)cccc3NS(=O)(=O)c3cccs3)ccc21` [N-{2-fluoro-6-[(2-thienylsulfonyl)amino]phenyl}-1-methyl-3-oxo-1,3-dihydro-2,1-benzisothiazole-5-sulfonamide], the IC50 falls from 1680 nM to 471 nM (3.6-fold). The second is the more potent here.

With `Cn1sc(=O)c2cc(S(=O)(=O)Nc3ccc(Cl)c(Cl)c3)ccc21` [N-(3,4-dichlorophenyl)-1-methyl-3-oxo-1,3-dihydro-2,1-benzisothiazole-5-sulfonamide] the IC50 was 1180 nM.
